From patent publication US20240199882A1, “THIENYL-DIBENZOAZEPINES AND THEIR DERIVATIVES AS DONORS FOR XANTHENE-BASED SHORT-WAVE INFRARED (SWIR) DYES” (Mississippi State University, priority 2022, published 2024)

What was measured:
[1] = Absorbance of DSPE-PEG encapsulated and co-encapsulated dyes; assay type: physicochemical; conditions: co-encapsulated in DSPE-PEG (rNP-NO) versus separate
From the text: The SCR-NO and IR-1061 were encapsulated using DSPE-PEG (a common phospholipids-polymer conjugate) to give NP-SCR-NO and NP-IR-1061, respectively. […] However, when the components were co-encapsulated (rNP-NO, ratiometric NP for NO), there was observed a favorable ˜100 nm red-shift of the SCR-NO λabs into the SWIR region (FIG. 3A). The corresponding change for IR-1061 was minimal (1 nm).

[2] = Photophysical properties of the dyes in dichloromethane; assay type: physicochemical; conditions: for QY / Stokes Shift / ε / λabs / λem: in dichloromethane (DCM)
From the text: The quantum yield (QY) of the dyes decreased as the absorption wavelength increased, which is common to these dyes.

SMILES	red-shift / change of λabs [1] [nm]	absorption maxima [2]	PA brightness value (EC×(1−QY)) ([2]; calculated value) [M⁻¹ cm⁻¹]	QY [2] [%]	Stokes Shift [2]	ε [2]	λabs [2] [nm]	λem [2] [nm]
ClC1=C(/C=C/c2cc(-c3ccccc3)[s+]c(-c3ccccc3)c2)CCC/C1=C/C=C1C=C(c2ccccc2)SC(c2ccccc2)=C1.F[B-](F)(F)F [IR-1061]	1							
CCOC(=O)c1ccccc1C1=c2cc/c(=C3/C=CC(=[N+]4c5ccccc5C=Cc5ccccc54)S3)cc2Oc2cc(-c3ccc(N4c5ccccc5C=Cc5ccccc54)s3)ccc21 [SCR-1]		840	82800	0.31	110	1.20 (M^−1cm^−1) × 10^5	840	950
CCOC(=O)c1ccccc1C1=c2cc/c(=c3/cc4c(s3)=CC(=[N+]3c5ccccc5C=Cc5ccccc53)S4)cc2Oc2cc(-c3cc4sc(N5c6ccccc6C=Cc6ccccc65)cc4s3)ccc21 [SCR-2]		950		0.036	150	1.24 (M^−1cm^−1) × 10^5	950	1100
CCOC(=O)c1ccccc1C1=c2cc/c(=c3/cc/c(=C4\C=CC(=[N+]5c6ccccc6C=Cc6ccccc65)S4)s3)cc2Oc2cc(-c3ccc(-c4ccc(N5c6ccccc6C=Cc6ccccc65)s4)s3)ccc21 [SCR-3]		1040		0.016	220	0.80 (M^−1cm^−1) × 10^5	1040	1260
